Test [1] is described as follows: Oxidation of NADPH under approximate physiologic conditions (HPLC, NADP+ formation). To be noted: substrate NADPH, pH 7.5, Michaelis-Menton fit, triplicate; for Km: read-out: KM (dissociation or Michaelis constant), NADPH oxidation. The format is biochemical. As for the experimental part:
The following stock solutions were prepared: • Stock NADPH (Sigma N 7505) (prepared fresh daily): 12.2 mg/(10 mL. 833.4 mg/mmol)=1.46 mM • Stock GdTex: 5.76 mg/(10.0 mL water. 1148 mg/mmol)=501.7 μM • Stock 4× Buffer: 200 mM HEPES, pH 7.5; 400 mM NaCl; 0.4 mM EDTA • Stock LuTex: 5.02 mg/(10.0 mL water×1166 mg/mmol)=431 μM These were combined to form the reaction mixtures analyzed by HPLC, for example: • 250 μL 4× Buffer, 250 μL NADPH Stock, 427 μL Water, 72.7 μL GdTex Stock • 250 μL 4× Buffer, 250 μL NADPH Stock, 457.7 μL Water, 42.3 μL LuTex Stock The HPLC Method employed was as follows: 1. HPLC Operating Parameters: • System—HPLC system capable of delivering gradient mobile phase • Detector wavelength—260 nm • Injection Volume—20 μL • Pressure—ca: 2000 psi • Column Temperature—40° C. • Column—Nucleogel DEAE 60-7 125×4 mm 2. Mobile Phase: • Solution A—0.75 M KH2PO4, pH 3.8 • Solution B—0.016 M KH2PO4, pH 3.8
A reaction mixture was prepared containing NADPH, water and sufficient buffer to maintain the solution at pH 7.5. Texaphyrin, 0.1 molar equivalent to the NADPH, was added to this reaction mixture, vortexed briefly, and then the solution placed in the HPLC sampler for immediate injection. Further injections were made at appropriate time points, whereupon the integrated peak areas of both NADPH and NADP^+ were measured and used to calculate the extent of reaction at a given time point.
Provided that the amount of texaphyrin was sufficiently low relative to substrate, the percentage of NADP^+ generated by the reaction plotted against time initially gave a straight line. (For LuTex, it was necessary to drop the catalyst concentration to ca. 0.05 equivalent.) The slope of initial time points (eg., plotting as mM concentration vs time in hours) provided a rate which was used as a point in a saturation (Michaelis-Menton) plot. This process was repeated at various concentrations of NADPH. Data (in triplicate) was fitted to the Michaelis-Menton equation (initial reaction velocity/catalyst concentration)=(kcat×substrate concentration)/(KM+substrate concentration), where substrate is NADPH, catalyst is texaphyrin complex, kcat is the first-order rate constant for the catalyst, and KM is the dissociation (or Michaelis) constant for the catalyst/substrate complex. For GdTex, kcat=0.049±0.003 min^−1 and KM=1.69±0.17 mM. For LuTex, kcat=0.119±0.011 min^−1 and KM=0.56±0.20 mM.
1B. By following the procedure of Example 1A using a single concentration of NADPH and employing 0.1 equivalent of test compound, the results illustrated in FIG. 16 were obtained.

Test [2] can be described thus: Production of H2O2 in the presence of ascorbate (colorimetric). Particulars: ascorbate plus GdTex, over the time interval of 75 to 200 minutes. The class given is biochemical. As for the experimental part:
In this example, the following stock solutions were prepared: • Stock ascorbic acid (Sigma A 5960) (prepared fresh): 9.98 mg/(10 mL×176.12 mg/mmol)=5.67 mM • Stock GdTex: 5.76 mg/(10.0 mL water×1148 mg/mmol)=502 μM • Stock 4× Buffer: 200 mM HEPES, pH 7.5; 400 mM NaCl These were combined to form the reaction mixture: 200 μL 4× Buffer, 39 μL ascorbic acid Stock, 517.3 μL Water, 43.7 μL GdTex Stock. The reaction mixture was analyzed for hydrogen peroxide as indicated above. As a control, a solution in which complex was not added was prepared as above, with suitable adjustment of the volume of water, and analyzed concurrently.
Measurements of the absorbance at 560 nm (with appropriate subtraction of the background absorbance of the reagent at this wavelength) were made of samples taken at the various timepoints. It was noted that the control solution gave a uniform background absorbance which was similar at all time points, whereas the mixture containing GdTex gave an increasing amount of absorbance over time. (Sugars are known to produce high background absorbance in this assay, see manufacturers insert for details.)

In test [3] the test system is animal tumor models. To be noted: reported in the literature; cited from earlier work.
Test [4] in a line: Production of H2O2 in the presence of NADPH (Bioxytech H2O2-560 colorimetric). The class given is biochemical. Particulars: NADPH plus 0.05 molar equivalent texaphyrin, no catalase, over the course of 100 minutes. As for the experimental part:
• Stock NADPH (Sigma N 7505) (prepared fresh): 10.14 mg/(10 mL×833.4 mg/mmol)=1.217 mM • Stock LuTex: 5.02 mg/(10.0 mL water×1166 mg/mmol)=[…] • Stock 4× Buffer: 200 mM HEPES, pH 7.5; 400 mM NaCl These were combined to form the reaction mixture: 200 μL 4× Buffer, 200 μL NADPH Stock, 371.8 μL Water, 28.2 μL LuTex Stock. This was analyzed as indicated below. As a control, a solution in which the LuTex complex was not added was prepared as above, with suitable adjustment of the volume of water, and analyzed concurrently. In similar manner, a solution was prepared as above except that 2 μL catalase (Boeringer-Mannheim 106 836, now Roche Molecular Biochemicals, Indianapolis, Ind.) was added, and analyzed concurrently.
A reaction mixture was prepared containing NADPH, buffer, and water. Texaphyrin catalyst, eg., 0.05 molar equivalent, was added to this reaction mixture, vortexed briefly, and incubated at ambient temperature in the dark. […] The absorbance at 240 nm was used to standardize this solution, which was further diluted and used to construct a standard H2O2 curve at 560 nm in conjunction with the H2O2 calorimetric reagent. […]
Measurements of the absorbance at 560 nm (with appropriate subtraction of the background absorbance of the reagent at this wavelength) were made of samples taken at the various time points.

SMILES strings stand for the structures.

With `CC(=O)[O-].CC(=O)[O-].CCc1c(CC)c2cc3nc(cnc4cc(OCCOCCOCCOC)c(OCCOCCOCCOC)cc4ncc4nc(cc1[n-]2)C(CCCO)=C4C)C(C)=C3CCCO.O.[Gd+3]` [GdTex, motexafin gadolinium], in test [1], the “kcat (first-order rate constant for the catalyst), NADPH oxidation” value came out at 0.000817 ± 5e-05 s⁻¹ and the Michaelis constant (Km) came to 1690 ± 170 µM. Besides, the H2O2 produced entry in test [2] is “approximately 35 μM”. Moreover, in test [3], the “radiation sensitization in animal tumor models” value was “enhance the efficacy of radiation”.

Take `CC(=O)[O-].CC(=O)[O-].CCc1c(CC)c2cc3nc(cnc4cc(OCCOCCOCCOC)c(OCCOCCOCCOC)cc4ncc4nc(cc1[n-]2)C(CCCO)=C4C)C(C)=C3CCCO.O.[Lu+3]` [LuTex, motexafin lutetium]: in test [1], the “kcat (first-order rate constant for the catalyst), NADPH oxidation” value was found to be 0.00198 ± 0.000183 s⁻¹ and the Km stood at 560 ± 200 µM. For the same compound, in test [4], the H2O2 produced entry is “Approximately 40 μM”. For the same compound, the “radiation sensitization in animal tumor models” value in test [3] is reported as “did not possess similar radiation sensitization properties”.

Broadly, the Km is the concentration of substrate that gives half-maximal velocity.

(Values after patent US7579338B2, “Methods and compositions for treating atheroma, tumors and other neoplastic tissues” (Pharmacyclics, Inc., priority 1999, dated 2009).)
